# In patent US20110082157A1, “Piperidinylamino-Thieno [2,3-D] Pyrimidine Compounds” (priority 2004, published 2011):
# Counter-ions that a name gives are not always drawn. Like-named read-outs stand apart in the source and are kept apart here.
# Assays:
# % Protein Binding = format: in vitro ADME
# Rat pK = conditions: in vivo; for bioavailability: read-out: Rat pK: % F
# HLM T1/2 = conditions: human, liver microsomes
# hERG = hERG (Homo sapiens, UniProt Q12809); assay: hERG % inhibition at 1 uM
# 5HT2B = 5HT2B (Homo sapiens, UniProt P41595); assay: Functional activity IC50 (5HT2B antagonist); format: cell-based
# 5HT2A [1] = biological target: T1, 5HT2A (Homo sapiens, UniProt P28223); assay: Functional activity 5HT2A; format: cell-based
# D3 = D3 (Homo sapiens, UniProt P35462); assay: D3 binding (Ki)
# 5HT1A [2] = biological target: T2, 5HT1A (Homo sapiens, UniProt P08908); assay: 5HT1A binding (Ki)
# T2 sequence (P08908 1-422): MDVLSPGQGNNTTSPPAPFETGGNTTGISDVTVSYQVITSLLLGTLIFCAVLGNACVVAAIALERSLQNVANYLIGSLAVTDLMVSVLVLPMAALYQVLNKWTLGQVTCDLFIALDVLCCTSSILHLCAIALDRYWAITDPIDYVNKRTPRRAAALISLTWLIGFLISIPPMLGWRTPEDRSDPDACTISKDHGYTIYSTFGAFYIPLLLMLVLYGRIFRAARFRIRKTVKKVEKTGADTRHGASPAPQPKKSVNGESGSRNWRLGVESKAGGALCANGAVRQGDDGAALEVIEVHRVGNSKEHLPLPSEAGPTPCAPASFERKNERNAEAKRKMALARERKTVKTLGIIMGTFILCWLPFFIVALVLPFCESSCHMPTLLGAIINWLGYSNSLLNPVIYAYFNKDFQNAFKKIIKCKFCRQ
# D4.4 = biological target: T3, D4.4 (Homo sapiens, UniProt P21917); assay: D4.4 binding (Ki)
# T3 sequence (P21917 1-419): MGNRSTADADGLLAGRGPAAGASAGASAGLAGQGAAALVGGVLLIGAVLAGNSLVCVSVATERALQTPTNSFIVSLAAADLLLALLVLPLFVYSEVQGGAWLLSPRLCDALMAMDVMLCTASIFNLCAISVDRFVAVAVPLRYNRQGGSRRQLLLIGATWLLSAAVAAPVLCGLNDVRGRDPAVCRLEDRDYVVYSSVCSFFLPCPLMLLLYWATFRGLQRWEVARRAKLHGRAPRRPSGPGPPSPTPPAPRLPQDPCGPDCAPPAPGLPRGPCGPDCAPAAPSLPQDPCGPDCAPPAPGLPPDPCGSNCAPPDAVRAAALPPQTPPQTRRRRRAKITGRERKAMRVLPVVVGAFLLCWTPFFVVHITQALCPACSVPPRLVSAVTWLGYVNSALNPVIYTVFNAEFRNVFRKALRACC
# 5HT2A [3] = biological target: T1, 5HT2A; assay: 5HT2A binding (Ki)
# D2S [4] = biological target: T4, D2S (Homo sapiens, UniProt P14416); assay: Functional activity D2S; format: cell-based
# D2L = D2L (Homo sapiens, UniProt P14416); assay: Functional activity D2L; format: cell-based
# IP3 = assay: IC50 (IP3); format: cell-based
# D2S [5] = biological target: T4, D2S; assay: D2S binding (Ki)
# 5HT1A [6] = biological target: T2, 5HT1A; assay: Functional activity 5HT1A; format: cell-based
# AMES Test = format: cell-based
# Na chan = assay: Na channel binding (Ki)
# s 1 = s 1 (Homo sapiens, UniProt Q99720); assay: s 1 binding (Ki)
# Mouse pK = conditions: in vivo
# D2 = D2 (Homo sapiens, UniProt P14416); assay: Functional activity D2 (agonist / antagonist); format: cell-based
# D1 = D1 (Homo sapiens, UniProt P21728); assay: D1 binding (Ki)
# D4 = biological target: T5, D4 (Homo sapiens, UniProt P21917); assay: D4 binding (Ki)
# T5 sequence (P21917 1-419): T3 sequence (P21917 1-419)
# [7] = iv, read-out: Rat pK: T1/2 (iv)
# [8] = po, read-out: Rat pK: T1/2 (po)
# T4 sequence (P14416 1-414 isoform P14416-2): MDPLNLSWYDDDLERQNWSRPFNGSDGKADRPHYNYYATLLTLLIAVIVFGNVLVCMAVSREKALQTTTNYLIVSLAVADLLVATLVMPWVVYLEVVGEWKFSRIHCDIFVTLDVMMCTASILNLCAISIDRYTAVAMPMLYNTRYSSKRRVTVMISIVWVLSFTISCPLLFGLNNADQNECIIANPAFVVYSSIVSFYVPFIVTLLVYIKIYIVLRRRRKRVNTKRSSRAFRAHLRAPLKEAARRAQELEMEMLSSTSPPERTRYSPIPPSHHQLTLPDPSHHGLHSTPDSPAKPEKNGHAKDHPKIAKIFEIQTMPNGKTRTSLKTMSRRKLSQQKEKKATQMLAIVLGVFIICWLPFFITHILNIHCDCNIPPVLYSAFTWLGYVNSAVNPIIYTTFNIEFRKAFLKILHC
# T1 sequence (P28223 whole entry, species assumed): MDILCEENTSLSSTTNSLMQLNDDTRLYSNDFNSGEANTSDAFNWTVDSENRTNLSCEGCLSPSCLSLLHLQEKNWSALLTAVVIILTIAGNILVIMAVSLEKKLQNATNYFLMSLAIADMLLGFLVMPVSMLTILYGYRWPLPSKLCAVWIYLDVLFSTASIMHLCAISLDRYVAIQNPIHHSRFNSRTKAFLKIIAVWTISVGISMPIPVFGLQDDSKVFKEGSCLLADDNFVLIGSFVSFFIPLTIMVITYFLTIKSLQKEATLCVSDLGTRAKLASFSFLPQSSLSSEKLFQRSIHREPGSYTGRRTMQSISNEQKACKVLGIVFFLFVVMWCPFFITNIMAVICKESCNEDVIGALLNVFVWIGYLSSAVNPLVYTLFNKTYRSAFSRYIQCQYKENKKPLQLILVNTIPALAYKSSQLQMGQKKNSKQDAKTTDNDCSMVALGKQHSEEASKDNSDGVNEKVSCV
# Sequence of hERG (Q12809 whole entry): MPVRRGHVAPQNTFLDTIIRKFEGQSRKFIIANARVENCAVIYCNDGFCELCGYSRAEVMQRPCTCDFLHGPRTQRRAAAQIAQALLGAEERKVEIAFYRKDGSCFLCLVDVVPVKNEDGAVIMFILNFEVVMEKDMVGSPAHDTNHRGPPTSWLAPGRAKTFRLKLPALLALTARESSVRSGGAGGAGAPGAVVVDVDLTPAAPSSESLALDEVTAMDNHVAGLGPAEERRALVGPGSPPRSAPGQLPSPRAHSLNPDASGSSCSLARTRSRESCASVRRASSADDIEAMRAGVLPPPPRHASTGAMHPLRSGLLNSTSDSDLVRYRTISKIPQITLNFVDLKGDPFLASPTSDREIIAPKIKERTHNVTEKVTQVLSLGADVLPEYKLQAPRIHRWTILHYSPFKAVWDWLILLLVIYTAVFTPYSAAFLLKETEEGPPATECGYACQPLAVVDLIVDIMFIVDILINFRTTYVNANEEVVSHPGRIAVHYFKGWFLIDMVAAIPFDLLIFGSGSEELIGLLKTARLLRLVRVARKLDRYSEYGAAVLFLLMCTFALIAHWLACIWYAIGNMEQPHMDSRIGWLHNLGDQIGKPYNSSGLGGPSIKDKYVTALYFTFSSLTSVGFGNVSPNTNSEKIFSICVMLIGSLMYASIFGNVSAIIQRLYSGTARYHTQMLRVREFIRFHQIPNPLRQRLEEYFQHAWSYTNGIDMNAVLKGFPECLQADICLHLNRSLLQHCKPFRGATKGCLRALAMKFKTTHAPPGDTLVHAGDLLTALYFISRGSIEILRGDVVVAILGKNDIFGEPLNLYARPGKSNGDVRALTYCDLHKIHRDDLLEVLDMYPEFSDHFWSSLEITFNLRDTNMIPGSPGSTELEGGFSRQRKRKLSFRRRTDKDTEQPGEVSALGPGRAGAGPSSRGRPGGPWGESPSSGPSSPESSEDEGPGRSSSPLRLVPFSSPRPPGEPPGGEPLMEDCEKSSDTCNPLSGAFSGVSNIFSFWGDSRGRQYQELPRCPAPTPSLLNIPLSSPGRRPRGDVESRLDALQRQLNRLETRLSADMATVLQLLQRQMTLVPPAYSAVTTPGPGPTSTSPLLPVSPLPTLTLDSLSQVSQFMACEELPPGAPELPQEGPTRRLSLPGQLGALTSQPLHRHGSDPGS
# Sequence of 5HT2B (P41595 whole entry, species assumed): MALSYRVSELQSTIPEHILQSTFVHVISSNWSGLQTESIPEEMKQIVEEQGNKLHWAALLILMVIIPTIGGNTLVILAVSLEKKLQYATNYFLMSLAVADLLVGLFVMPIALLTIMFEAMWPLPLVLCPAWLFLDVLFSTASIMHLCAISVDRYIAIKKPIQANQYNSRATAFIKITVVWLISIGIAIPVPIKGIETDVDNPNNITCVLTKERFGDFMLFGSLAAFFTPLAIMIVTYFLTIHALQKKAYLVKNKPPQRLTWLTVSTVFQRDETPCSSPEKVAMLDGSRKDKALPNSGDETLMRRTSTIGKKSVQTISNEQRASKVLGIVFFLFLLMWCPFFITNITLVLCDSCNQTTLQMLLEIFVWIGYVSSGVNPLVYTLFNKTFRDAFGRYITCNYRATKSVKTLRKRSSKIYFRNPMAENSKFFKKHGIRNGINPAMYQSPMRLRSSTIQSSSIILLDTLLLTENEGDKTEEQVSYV
# Sequence of D3 (P35462 whole entry): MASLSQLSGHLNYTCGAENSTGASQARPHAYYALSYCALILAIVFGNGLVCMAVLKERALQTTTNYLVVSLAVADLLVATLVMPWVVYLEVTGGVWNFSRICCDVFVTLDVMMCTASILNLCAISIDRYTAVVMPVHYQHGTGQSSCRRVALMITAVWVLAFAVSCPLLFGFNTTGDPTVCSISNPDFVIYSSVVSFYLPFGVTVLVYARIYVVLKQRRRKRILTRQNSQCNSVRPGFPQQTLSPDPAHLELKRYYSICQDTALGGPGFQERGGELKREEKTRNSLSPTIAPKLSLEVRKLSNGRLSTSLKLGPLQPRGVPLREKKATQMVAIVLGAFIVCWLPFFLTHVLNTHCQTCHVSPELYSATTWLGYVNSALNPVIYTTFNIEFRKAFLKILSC
# Sequence of s 1 (Q99720 whole entry): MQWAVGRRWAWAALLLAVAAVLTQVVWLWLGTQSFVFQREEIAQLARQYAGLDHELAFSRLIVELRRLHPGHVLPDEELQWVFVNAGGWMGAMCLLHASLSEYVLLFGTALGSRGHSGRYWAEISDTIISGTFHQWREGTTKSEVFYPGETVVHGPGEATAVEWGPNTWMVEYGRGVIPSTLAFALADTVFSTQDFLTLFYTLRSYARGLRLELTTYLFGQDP
# Sequence of D2 (P14416 whole entry): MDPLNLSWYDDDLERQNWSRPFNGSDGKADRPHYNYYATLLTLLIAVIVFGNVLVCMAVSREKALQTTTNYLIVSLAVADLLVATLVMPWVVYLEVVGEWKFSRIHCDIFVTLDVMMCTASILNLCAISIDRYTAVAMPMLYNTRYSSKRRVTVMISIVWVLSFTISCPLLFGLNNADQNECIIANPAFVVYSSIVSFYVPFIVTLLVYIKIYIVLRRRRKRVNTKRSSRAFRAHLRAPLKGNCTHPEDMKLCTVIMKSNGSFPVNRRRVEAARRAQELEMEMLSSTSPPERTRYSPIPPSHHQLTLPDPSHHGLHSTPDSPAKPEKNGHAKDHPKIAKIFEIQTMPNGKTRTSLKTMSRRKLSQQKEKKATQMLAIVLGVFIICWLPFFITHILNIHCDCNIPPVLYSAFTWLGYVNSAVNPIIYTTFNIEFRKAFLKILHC
# Sequence of D2L (P14416 whole entry): as above
# Sequence of D1 (P21728 whole entry): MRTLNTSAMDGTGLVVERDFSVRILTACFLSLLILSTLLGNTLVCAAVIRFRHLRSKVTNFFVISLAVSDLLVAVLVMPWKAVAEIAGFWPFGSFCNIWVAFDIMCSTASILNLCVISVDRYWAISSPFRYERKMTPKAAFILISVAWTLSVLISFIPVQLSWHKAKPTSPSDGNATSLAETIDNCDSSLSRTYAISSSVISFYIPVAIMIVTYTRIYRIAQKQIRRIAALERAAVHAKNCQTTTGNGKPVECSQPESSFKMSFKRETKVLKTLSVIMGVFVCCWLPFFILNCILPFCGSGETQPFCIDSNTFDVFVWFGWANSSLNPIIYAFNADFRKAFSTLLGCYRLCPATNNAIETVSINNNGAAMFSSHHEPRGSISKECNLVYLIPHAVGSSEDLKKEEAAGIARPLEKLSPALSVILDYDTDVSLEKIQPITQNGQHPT
SMILES,fraction unbound (% Protein Binding),half-life (Rat pK; [7]) [min],bioavailability (Rat pK; po) [%],half-life (Rat pK; [8]) [min],half-life (HLM T1/2) [min],hERG (% Inhibition at 1 uM) (hERG) [%],IC50 (5HT2B) [µM],Ki (5HT1A [2]) [µM],Ki (D4.4) [µM],IC50 (IP3) [µM],Ki (D2S [5]; NA: Not Active) [µM],AMES Test (AMES Test),Ki (D2S [5]) [µM],other results
"CC(C)Cc1cc2c(NC3CCN(C(C)c4cc(F)cc(F)c4)CC3)ncnc2s1 (centres unmarked) [Example B18, N-(1-(1-(3,5-difluorophenyl)ethyl)piperidin-4-yl)-6-isobutylthieno[2,3-d]pyrimidin-4-amine, dihydrochloride]",0.062,12,3,24,7,31,5.7,,,,,,,
"Fc1cc(F)cc(CN2CCC(Nc3ncnc4sc(Cl)cc34)CC2)c1.O=C(O)/C=C\C(=O)O [Example B34, N-(1-(3,5-difluorobenzyl)piperidin-4-yl)-6-chlorothieno[2,3-d]pyrimidin-4-amine, monomaleate]",0.01,24,29.1,66,,29.4,0.68,0.035,0.0034,0.00074,0.066,Negative,,Functional Activity IC50 (5HT2A) (5HT2A [1]): Not Active; Ki (D3): 0.14 µM; Ki (5HT2A [3]): 0.26 µM; IC50 (D2S [4]): 0.0633 µM; IC50 (D2L): 0.0172 µM; Functional Activity IC50 (5HT1A) (5HT1A [6]): Not Active
"Cc1c(Cl)sc2ncnc(NC3CCN(Cc4cccc(F)c4)CC3)c12.O=C(O)/C=C\C(=O)O [Example B38, N-(1-(3-fluorobenzyl)piperidin-4-yl)-6-chloro-5-methylthieno[2,3-d]pyrimidin-4-amine, monomaleate]",0.062,24,18.2,54,,78.1,0.56,,,0.00227,0.17,,,
"Fc1cccc(CN2CCC(Nc3ncnc4sc(Cl)cc34)CC2)c1.O=C(O)/C=C\C(=O)O [Example B42, N-(1-(3-fluorobenzyl)piperidin-4-yl)-6-chlorothieno[2,3-d]pyrimidin-4-amine, monomaleate]",0.017,24,22.4,72,,50.1,0.11,0.017,0.0047,0.0017,0.17,Negative,,IC50 (5HT2A [1]): 0.34 µM; Ki (D3): 0.026 µM; Ki (Na chan): 0.25 µM; Ki (5HT2A [3]): 0.052 µM; IC50 (D2S [4]): 0.292 µM; IC50 (D2L): 0.162 µM; Ki (s 1): 0.0067 µM; Functional Activity IC50 (5HT1A) (5HT1A [6]): Not Active
"N#Cc1cccc(CN2CCC(Nc3ncnc4sc(Cl)cc34)CC2)c1 [Example B43, 3-((4-(6-chlorothieno [2,3-d]pyrimidin-4-ylamino)piperidin-1-yl)methyl) benzonitrile, monomaleate]",0.018,44.4,17.2,91.8,22,47.3,0.0175,0.28,0.025,0.00148,,Negative,1,"Ki (D3): 1.3 µM; Ki (Na chan): 0.97 µM; bioavailability (Mouse pK; ip, read-out: Mouse pK: % F): 87%; half-life (Mouse pK; ip, read-out: Mouse pK: T1/2 (ip)): 30 min; half-life (Mouse pK; iv, read-out: Mouse pK: T1/2 (iv)): 26 min; EC50 (D2; agonist): 0.92 µM; IC50 (D2) (D2; antagonist): No antagonist activity; Ki (D1): 1.2 µM; Ki (s 1): 0.011 µM"
"Fc1ccc(-c2c(Cl)sc3ncnc(NC4CCN(Cc5cc(F)cc(F)c5)CC4)c23)cc1 [Example B48, N-(1-(3,5-difluorobenzyl)piperidin-4-yl)-6-chloro-5-(4-fluorophenyl) thieno[2,3-d]pyrimidin-4-amine, monomaleate]",,,,,< 15,,,,,,,,1.1,Ki (5HT1A) (5HT1A [2]): not Active
"N#Cc1cc(CN2CCC(Nc3ncnc4sc(Cl)cc34)CC2)ccc1F [Example B50, 5-((4-(6-chlorothieno [2,3-d]pyrimidin-4-ylamino)piperidin-1-yl)methyl)-2-fluorobenzonitrile, monomaleate]",,37.2,22.6,53.4,28,23.7,0.027,0.1,0.0054,,0.67,Negative,,
"CNC(=O)c1cccc(CN2CCC(Nc3ncnc4sc(Cl)cc34)CC2)c1 [Example B55, 3-((4-(6-chlorothieno [2,3-d]pyrimidin-4-ylamino)piperidin-1-yl)methyl)-N-methylbenzamide, monomaleate]",,,,,34,,,,,,,,,Ki (D4): 0.33 µM
"O=S(=O)(c1cccc(CN2CCC(Nc3ncnc4sc(Cl)cc34)CC2)c1)C(F)(F)F [Example B56, N-(1-(3-(trifluoromethylsulfonyl)benzyl)piperidin-4-yl)-6-chlorothieno[2,3-d] pyrimidin-4-amine, monomaleate]",,,,,< 15,,,,,,,,3.1,Ki (D4; read-out: Ki (D4)): 0.18 µM
"CN(C)C(=O)c1cccc(CN2CCC(Nc3ncnc4sc(Cl)cc34)CC2)c1 [Example B57, 3-((4-(6-chlorothieno[2,3-d]pyrimidin-4-ylamino)piperidin-1-yl)methyl)-N,N-dimethylbenzamide, monomaleate]",,,,,24,,,,,,,,,Ki (D4; read-out: Ki (D4)): 0.54 µM
"CS(=O)(=O)c1cccc(CN2CCC(Nc3ncnc4sc(Cl)cc34)CC2)c1 [Example B58, N-(1-(3-(methylsulfonyl)benzyl)piperidin-4-yl)-6-chlorothieno[2,3-d]pyrimidin-4-amine, monomaleate]",,,,,27,,,,,,,,> 10,Ki (D4; read-out: Ki (D4)): 0.43 µM
